# From patent publication US4369120A, “Refrigeration liquid with leak indicator and process of using same” (priority 1981, dated 1983)
# Entries after “also recorded” stand apart in the source; their conditions may differ.
# Tests used:
# [1] = 400° F. (204.4° C.), reported in U.S. Pat. No. 3,770,640; cited from earlier work
# [2] = Solubility of dyes in halocarbon refrigerants; type: physicochemical; conditions: for Refr. Sol. In R-12: Table I, refrigerant R-12
# Experimental: Solubilities of various dyes in various halocarbon refrigerants were also determined according to the following standardized procedure. […] The R-11 was allowed to vaporize, leaving a known amount of dye in the bottom portion of the test tube. The tube was then attached to a charging apparatus containing a supply of a given halocarbon refrigerant and various amounts of the refrigerant were charged into the tube while chilling the latter by immersion in liquid nitrogen. The tube containing the dye/refrigerant mixture was sealed under vacuum, allowed to reach room temperature (about 21° C.) and rotated for several hours. Visual inspection of the tube was made at several temperatures to note the degree of dissolution. The procedure was improved over previously used methods in that an exact predetermined amount of dye and refrigerant were made to interact, requiring fewer weighings. Finally, it became possible to use the same tube to check solubility at several different temperatures.
# [3] = Solubility of dyes in refrigeration oils; conditions: for Dye Solubility in refrigeration oil: room temperature (about 21° C.); for Oil Sol. In 3GS: Table I, Suniso 3GS refrigeration oil
# Experimental: Manufacturers of refrigeration equipment generally demand that any refrigeration liquid satisfactorily pass such a sealed tube test before they approve the liquid for use in their equipment. In addition, the solubility of the various dyes in oil and in refrigerant were determined.
# Solubility of various dyes in various refrigeration oils was carefully determined according to the following standardized procedure. An excess of the subject dye was added to a given weight (e.g., 100 g) of refrigerant oil. The mixture was stirred for one-half hour with mild heating, whereupon it was cooled to room temperature (about 21° C.) and transferred to a centrifuge tube. The mixture was centrifuged approximately 15 minutes at 1000 rpm. A sample of the supernatant liquid was decanted (1.00 g±0.01 g) and diluted to 100 ml volume with methylene chloride. Aliquot portions were taken and read against the principal absorption peaks by visible light spectroscopy. Wt/wt percentage concentrations were then calculated from proper standard curves.
# [4] = Sealed tube test of stability of dyes in refrigerant/refrigeration oil with metal coupons; type: physicochemical; conditions: for Stability, Mean Life: Table I, sealed tube data in R-12 at 350° F.; for stability as measured by the sealed tube test: text summary of Table I, 350° F.
# Experimental: By reference to Table I below it can be appreciated that such ortho substitution has a remarkably beneficial effect on the stability of the dyes in the accelerated sealed tube test used for evaluation. The first three dyes listed, embodying the principles of this invention, routinely withstand in excess of twenty days in the sealed tube test at 350° F. (176.7° C.), equivalent to many years of normal use in a refrigeration system.
# The sealed tube test serves as a method of evaluating in an accelerated manner interactions of materials found in a refrigeration system.
# Glass tubes and all metal test coupons are scrupulously cleaned. Test refrigerants are distilled to minimize moisture contamination. Moisture is removed from the refrigeration test oil "Suniso" 3GS by subjecting the oil to a vacuum with slight stirring and heating. Ratios of refrigerant/refrigerant oil range from 1:1 to 1:2 by weight.
# Refrigerant oil and representative metal coupons of copper #10AWG wire, Swedish valve stock steel, and aluminum metal sheet are placed in a glass tube along with the subject test dye material (0.25-1.0% wt/wt) dissolved in the refrigerant oil. Like samples without the subject dye are analyzed as controls.
# The tube and its contents are chilled in a liquid nitrogen bath while the refrigerant is condensed into the tube via a calibrated manometer. The tube is sealed under a vacuum of at least 0.1 torr.
# Glass tubes and contents are subjected to uniform heating in a bored aluminum block placed in a temperature-programmed oven.
# The oven temperatures used vary according to the test refrigerant, as indicated:
# The test is run for one of the following time periods: 5, 14, 21, 30 or 60 days.
# The tube contents may be evaluated by several methods:
# of these methods, the visual examination is the most rapid and the only qualitative method. Any color change in the subject dye coloration is noted when compared to a control sample.
# The quantitative methods involve analysis for decomposition products of chloride as hydrochloric acid or organic products by gas chromatography, infrared spectroscopy, or mass spectroscopy. However, visual inspection and gas chromatography are widely used, and they were selected as standardization procedures for evaluation of sealed tube contents.
# R-12 is chemically one of the more reactive refrigerants; thus, short term tests with refrigeration liquids containing this refrigerant admixed with a mineral oil yield the most rapid results. R-22 and R-502 are also used but the decomposition products are more difficult to analyze by gas chromatography. Ultimately the test material must pass interactions involving any of these refrigerants. The visual method can be used empirically on a pass-fail basis. As verified experimentally, visual results are considered as valid as instrumental methods.
Structure (SMILES),solubility in the halocarbon refrigerant (in words) [2],"Solubility in refrigerant ([2]; R-12, 21° C.)","Solubility in refrigerant ([2]; R-22, 21° C.)","Solubility in refrigerant ([2]; R-502, 21° C.)",Refr. Sol. In R-12 [2],solubility in the refrigeration oil (in words) [3],Oil Sol. In 3GS [3],"Stability, Mean Life [4]",stability as measured by the sealed tube test [4],also measured
"CCc1cc(CC)c(Nc2ccc(Nc3c(CC)cc(CC)cc3CC)c3c2C(=O)c2ccccc2C3=O)c(CC)c1 [1,4-bis(2,4,6-triethylanilino)anthraquinone]",,,,,,,,,,stability in the sealed tube test at 400° F. (in words) [1]: very unstable; also recorded: so poor as to make this dye commercially unacceptable
"CCc1cccc(C)c1Nc1ccc(Nc2c(C)cccc2CC)c2c1C(=O)c1ccccc1C2=O [Dye No. 1-35, 1,4-bis(2-methyl-6-ethylanilino)anthraquinone]",sufficient solubility; also recorded: substantially greater solubility in the various refrigerants than the other dyes tested,0.2 %(wt/wt),0.4 %(wt/wt),0.1 %(wt/wt),0.2%,relatively high solubility,4.8%,26.2 days,> 20 days,"Solubility in refrigerant ([2]; R-11, 21° C.): 0.2 %(wt/wt); Solubility in refrigerant ([2]; R-12, 0° C.): 0.2 %(wt/wt); Solubility in refrigerant ([2]; R-12, -20° C.): 0.2 %(wt/wt); Solubility in refrigerant ([2]; R-22, 0° C.): 0.4 %(wt/wt); Solubility in refrigerant ([2]; R-22, -20° C.): 0.4 %(wt/wt); Solubility in refrigerant ([2]; R-502, 0° C.): < 0.1 %(wt/wt); Solubility in refrigerant ([2]; R-502, -20° C.): < 0.1 %(wt/wt); Dye Solubility in refrigeration oil ([3]; DuPont Zephron 150 (alkyl benzene type)): 5.3 %(wt/wt); Dye Solubility in refrigeration oil ([3]; Suniso 3GS): 4.8 %(wt/wt); Dye Solubility in refrigeration oil ([3]; Suniso 4GS): 4.6 %(wt/wt); Dye Solubility in refrigeration oil ([3]; Suniso 5GS): 4.8 %(wt/wt); Dye Solubility in refrigeration oil ([3]; Texaco Cappella D): 4.8 %(wt/wt); Dye Solubility in refrigeration oil ([3]; Texaco Cappella E): 4.9 %(wt/wt); solubility in representative naphthenic and alkyl benzene refrigeration oils ([3]; summary of Table II): about 5%; stability in the sealed tube test at 402° F. (in words) ([4]; 402° F. (205.5° C.), compared with 350° F.): virtually as stable at 402° F. (205.5° C.) as it is at 350° F. (176.7° C.); also recorded: excellent stability of dye No. 1-35 persists even at much higher test temperatures; Mean Life, Days at 350° F. ([4]; Sample C, purity 97%): 24.0 days; Mean Life, Days at 350° F. ([4]; Sample D, purity 95%): 24.0 days; Mean Life, Days at 350° F. ([4]; Sample E, purity 89%): 17.0 days; Mean Life, Days at 350° F. ([4]; Sample F, purity 65%): 5.0 days; Mean Life, Days at 350° F. ([4]; Samples A and B, purity 100% (by definition)): 26.2 days"
"Cc1cccc(C)c1Nc1ccc(Nc2c(C)cccc2C)c2c1C(=O)c1ccccc1C2=O [Dye No. 2-31, 1,4-Bis(2,6-dimethylanilino)-anthraquinone]",sufficient solubility,< 0.02 %(wt/wt),0.04 %(wt/wt),< 0.02 %(wt/wt),< 0.1%,relatively high solubility,0.1%,22.4 days,> 20 days,
"Cc1cc(C)c(Nc2ccc(Nc3c(C)cc(C)cc3C)c3c2C(=O)c2ccccc2C3=O)c(C)c1 [Dye No. 3-25, 1,4-Bis(mesidino)anthraquinone]",sufficient solubility,,,,< 0.1%,relatively high solubility,0.55%,24.3 days,> 20 days,
